Legend:
[1] = biological target: T1, α-D-glucosidase (Yeast) (Saccharomyces cerevisiae, UniProt P53341); test: Glycosidase assay, α-D-glucosidase (Yeast); type: biochemical; settings: Table 16; % inhibition; concentration not given
T1 construct: purchased Sigma-Aldrich
Description: (§1) The assays used p-nitrophenyl-substrates and commercial enzymes purchased from Sigma-Aldrich. Enzymes were assayed at 27° C. in 0.1M citric acid/0.2M disodium hydrogen phosphate buffers at the optimum pH for the enzyme. The incubation mixture consisted of 10 μl enzyme solution, 10 μl of 10 mg/ml aqueous solution of extract and 50 μl of the appropriate 5 mM p-nitrophenyl substrate made up in buffer at the optimum pH for the enzyme. The reactions were stopped by addition of 70 μl 0.4M glycine (pH 10.4) during the exponential phase of the reaction, which had been determined at the beginning using uninhibited assays in which water replaced mulberry fractions. Final absorbances were read at 405 nm using a Versamax microplate reader (Molecular Devices). Assays were carried out in triplicate, and the values given are means of the three replicates per assay. Results are expressed as % inhibition.
(§2) Substrates are 10 mM p-nitrophenyl-glycopyranosides. Enzymes are purchased from Sigma and run at the pH optima

[2] = biological target: T2, human recombinant α-L-iduronidase (Homo sapiens, UniProt P35475); test: α-L-iduronidase inhibition; type: biochemical
T2 sequence (P35475 28-653): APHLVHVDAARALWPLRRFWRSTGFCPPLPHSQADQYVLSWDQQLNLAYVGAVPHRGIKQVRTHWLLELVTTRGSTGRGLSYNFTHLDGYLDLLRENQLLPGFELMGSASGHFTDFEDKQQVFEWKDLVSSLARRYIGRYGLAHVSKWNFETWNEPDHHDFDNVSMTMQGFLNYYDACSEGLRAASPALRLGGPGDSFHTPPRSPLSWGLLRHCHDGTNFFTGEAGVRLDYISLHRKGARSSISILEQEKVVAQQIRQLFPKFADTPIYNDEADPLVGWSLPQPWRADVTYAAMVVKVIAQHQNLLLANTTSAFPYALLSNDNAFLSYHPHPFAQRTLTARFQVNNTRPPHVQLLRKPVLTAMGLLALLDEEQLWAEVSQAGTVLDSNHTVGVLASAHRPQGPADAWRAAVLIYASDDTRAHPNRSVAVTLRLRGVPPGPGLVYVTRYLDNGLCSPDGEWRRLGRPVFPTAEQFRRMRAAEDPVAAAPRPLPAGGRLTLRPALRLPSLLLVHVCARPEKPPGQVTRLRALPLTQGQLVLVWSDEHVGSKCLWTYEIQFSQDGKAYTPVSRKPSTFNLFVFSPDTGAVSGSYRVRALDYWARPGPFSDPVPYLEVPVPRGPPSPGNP

[3] = tested on: naringinase (P. decumbens); test: Glycosidase assay, naringinase (P. decumbens); type: biochemical; settings: Table 16; % inhibition; concentration not given
Description: as §1, §2

[4] = tested on: β-D-glucosidase (yeast); test: Glycosidase assay, β-D-glucosidase (yeast); type: biochemical; settings: Table 16; % inhibition; concentration not given
Description: as §1

[5] = biological target: T3, amyloglucosidase (A. niger) (Aspergillus niger, UniProt P69328); test: Glycosidase assay, amyloglucosidase (A. niger); type: biochemical; settings: Table 16; % inhibition; concentration not given
T3 construct: purchased Sigma-Aldrich
T3 sequence (P69328 25-640): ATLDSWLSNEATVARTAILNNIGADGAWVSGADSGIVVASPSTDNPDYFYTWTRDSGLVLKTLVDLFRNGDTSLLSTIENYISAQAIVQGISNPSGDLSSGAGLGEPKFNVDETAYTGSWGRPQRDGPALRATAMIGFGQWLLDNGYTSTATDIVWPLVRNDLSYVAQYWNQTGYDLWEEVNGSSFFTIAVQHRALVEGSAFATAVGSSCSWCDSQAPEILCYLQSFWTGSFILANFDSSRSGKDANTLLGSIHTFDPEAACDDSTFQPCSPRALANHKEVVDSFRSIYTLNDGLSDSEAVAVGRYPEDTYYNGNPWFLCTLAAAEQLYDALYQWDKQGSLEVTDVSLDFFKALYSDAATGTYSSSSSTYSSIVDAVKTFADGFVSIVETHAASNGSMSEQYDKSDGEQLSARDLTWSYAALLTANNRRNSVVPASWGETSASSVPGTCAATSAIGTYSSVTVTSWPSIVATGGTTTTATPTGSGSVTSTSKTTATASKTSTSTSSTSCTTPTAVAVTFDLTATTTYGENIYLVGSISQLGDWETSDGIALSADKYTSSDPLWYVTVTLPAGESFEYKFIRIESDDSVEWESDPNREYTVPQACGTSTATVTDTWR
Description: as §1, §2

[6] = biological target: T4, α-D-mannosidase (Jack bean) (Canavalia ensiformis, UniProt C0HJB3); test: Glycosidase assay, α-D-mannosidase (Jack bean); type: biochemical; settings: Table 16; % inhibition; concentration not given
T4 construct: purchased Sigma-Aldrich
T4 sequence (C0HJB3 1-562 limits assumed): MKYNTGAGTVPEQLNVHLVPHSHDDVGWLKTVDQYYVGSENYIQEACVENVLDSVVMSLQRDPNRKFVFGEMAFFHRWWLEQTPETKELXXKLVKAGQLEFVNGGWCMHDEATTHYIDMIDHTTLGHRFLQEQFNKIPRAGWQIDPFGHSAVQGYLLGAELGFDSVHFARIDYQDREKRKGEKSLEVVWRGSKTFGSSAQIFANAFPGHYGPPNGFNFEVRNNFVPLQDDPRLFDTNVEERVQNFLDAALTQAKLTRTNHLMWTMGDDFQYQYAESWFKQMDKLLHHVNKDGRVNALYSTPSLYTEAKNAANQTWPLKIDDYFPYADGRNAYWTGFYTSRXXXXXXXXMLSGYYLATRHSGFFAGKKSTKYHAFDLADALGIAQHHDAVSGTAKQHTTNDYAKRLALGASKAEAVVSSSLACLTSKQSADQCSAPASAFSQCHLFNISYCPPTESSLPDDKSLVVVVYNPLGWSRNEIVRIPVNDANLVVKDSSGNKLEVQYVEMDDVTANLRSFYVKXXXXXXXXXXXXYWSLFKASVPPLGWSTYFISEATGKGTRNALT
Description: as §1, with “The reactions were stopped by addition of 70 μl 0.4M glycine (pH 10.4) during the exponential phase of the reaction, which had been determined at the beginning using uninhibited assays in which water replaced mulberry fractions.” left out
as §2

[7] = tested on: β-D-glucosidase (almond); settings: typical DNJ inhibitory activity shown for reference, in words; cited from earlier work
[8] = biological target: T1, α-D-glucosidase (Yeast); settings: typical DNJ inhibitory activity shown for reference, in words; cited from earlier work
[9] = biological target: T5, α-D-galactosidase (green coffee bean) (Coffea arabica, UniProt Q42656); settings: typical DNJ inhibitory activity shown for reference, in words; cited from earlier work
T5 construct: purchased Sigma-Aldrich
T5 sequence (Q42656 16-378): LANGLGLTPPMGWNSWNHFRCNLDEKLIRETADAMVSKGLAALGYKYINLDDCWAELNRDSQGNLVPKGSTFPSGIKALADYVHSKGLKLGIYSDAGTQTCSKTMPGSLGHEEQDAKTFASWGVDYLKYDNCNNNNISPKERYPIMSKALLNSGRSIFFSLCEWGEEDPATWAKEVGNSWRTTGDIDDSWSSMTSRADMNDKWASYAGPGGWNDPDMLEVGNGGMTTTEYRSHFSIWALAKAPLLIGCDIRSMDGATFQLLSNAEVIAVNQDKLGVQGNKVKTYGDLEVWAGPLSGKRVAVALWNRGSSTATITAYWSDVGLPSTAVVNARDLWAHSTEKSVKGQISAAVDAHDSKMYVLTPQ

T1 sequence (P53341 whole entry): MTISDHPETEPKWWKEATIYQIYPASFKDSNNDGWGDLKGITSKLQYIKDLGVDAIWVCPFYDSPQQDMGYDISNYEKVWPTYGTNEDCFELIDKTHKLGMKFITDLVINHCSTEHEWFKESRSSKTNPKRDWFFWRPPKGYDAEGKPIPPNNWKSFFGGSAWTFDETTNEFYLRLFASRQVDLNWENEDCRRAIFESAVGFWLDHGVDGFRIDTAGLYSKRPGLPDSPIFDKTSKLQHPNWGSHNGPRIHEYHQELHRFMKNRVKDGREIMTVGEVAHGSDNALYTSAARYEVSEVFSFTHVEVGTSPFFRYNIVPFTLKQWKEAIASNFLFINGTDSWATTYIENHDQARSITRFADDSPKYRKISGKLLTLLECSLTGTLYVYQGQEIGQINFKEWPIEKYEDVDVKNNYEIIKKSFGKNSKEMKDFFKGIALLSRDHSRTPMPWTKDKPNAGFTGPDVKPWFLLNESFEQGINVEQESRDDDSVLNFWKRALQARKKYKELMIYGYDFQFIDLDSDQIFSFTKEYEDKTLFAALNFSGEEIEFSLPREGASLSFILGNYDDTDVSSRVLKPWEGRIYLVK

Structure (SMILES) | α-D-glucosidase (Yeast) [1] [%] | inhibition of the iduronidase, in words ([2]; at 0.8 mM) | Naringinase (P. decumbens) [3] [%] | β-D-glucosidase (yeast) [4] [%] | Amyloglucosidase [5] [%] | α-D-mannosidase (Jack bean) [6] [%] | IC50 [2] [µM] | β-D-glu almond, typical DNJ inhibitory activity [7] | α-D-glu Yeast, typical DNJ inhibitory activity [8] | α-D-gal green coffee bean, typical DNJ inhibitory activity [9]
O=C(O)CN1C[C@H](O)[C@@H](O)[C@H](O)[C@H]1CO [DNJ-N-ethanoic, DNJ-ethanoic acid] | 2.5 | only weakly inhibits | 0 | 14 | 0 | 38 | – | – | – | –
O=C(O)CCN1C[C@H](O)[C@@H](O)[C@H](O)[C@H]1CO [DNJ-N-propanoic, DNJ-N-propanoic acid] | 0.0 | – | 4 | 32 | 53 | 40 | 383 | – | – | –
O=C(O)CN1C[C@@H](O)[C@H](O)[C@H]1CO [DAB-N-ethanoic, DAB-N-ethanoic acid] | 10.7 | – | 0 | 7 | −2 | 28 | 196 | – | – | –
OC[C@H]1NC[C@H](O)[C@@H](O)[C@@H]1O [DNJ, 1 deoxynojirmycin] | 36 | – | 21 | 64 | 32 | 27 | – | moderate | weak | weak
